Measurements reported in patent publication US20220105150A1, “AMPHIPATHIC ALPHA-HELICAL ANTIMICROBIAL PEPTIDES TREAT INFECTIONS BY GRAM-NEGATIVE PATHOGENS” (priority 2019, published 2022).
≈ marks a conversion by molar mass, not a printed value. Where “and” joins values, the source holds several entries; their conditions need not be identical. Identical values can stand only once.

Key:
[1] = test system: Acinetobacter baumannii strains resistant to Polymyxin B and Colistin; settings: for MICGM: geometric mean of MIC values from seven strains resistant to Polymyxin B and Colistin; for MIC MB9941: strain MB9941; for MIC MB9941 / MIC MB9949 / MIC MB9951 / MIC MB9952 / MIC MB9953 / MIC MB9955 / MIC MB9963: Mueller-Hinton medium, 37° C., 24 h; for MIC MB9949: strain MB9949; for MIC MB9951: strain MB9951; for MIC MB9952: strain MB9952; for MIC MB9953: strain MB9953; for MIC MB9955: strain MB9955; for MIC MB9963: strain MB9963
human red blood cells = experiment: Hemolytic activity on human red blood cells; settings: for HC50: 50% hemolysis of human red blood cells after 18 h at 37° C.; for HC50 Fold Decrease: same peptide with and without specificity determinants
Procedure: For comparison, the inventors also determined the hemolytic activity after 18 hours at 37° C. Hemolysis can be determined with red blood cells (RBC) from various species including human red blood cells (hRBC).
The coupling procedure used 5 equivalents of Fmoc-D-amino acid or Fmoc-L-amino acid and HCTU (O-(1H-6-chlorobenzotriazole-1-yl)-1,1,3,3-tetramethyluronium hexafluorophosphate) and 6-Cl-HOBt (1-hydroxy-6-chloro-benztriazole) at 4.5 equivalents in DMF (Fisher Scientific, Denver, Colo.) and N-diisopropylethylamine (DIPEA) 10 equivalents (Oakwood Products, Inc., Estill, S.C.) in N-methyl-2-pyrrolidinone (NMP) (Fisher Scientific, Denver, Colo.) with the first and second couplings at room temperature for 30 min each. The deprotection procedure (removal of Fmoc protecting group) was carried out by treatment of the resin with 0.1 M HOBt (1-hydroxybenzotriazole) in DMF with 20% piperidine for 30 min. […] The resin was removed by filtration and peptide was precipitated with ice-cooled ethyl ether on ice for 15 min. Ether was decanted, the peptide was washed twice with ether and redissolved in acetonitrile/water (1:1, with 0.2% TFA) and the solution lyophilized to obtain the crude peptide. • Analytical and Preparative Purification by Reversed-Phase Chromatography: Analytical RP-HPLC: Column, Luna C18 (2), 250×4.6 mm I.D., 5 μm particle size, 100 Å pore size from Phenomenex (Torrance, Calif.). Run conditions: linear AB gradient (1% acetonitrile/min, starting from 2% acetonitrile) at a flow-rate of 1 ml/min, where eluent A is 0.2% aq. TFA and eluent B is 0.18% TFA in acetonitrile; temperature, 30° C. Preparative RP-HPLC: Peptides were dissolved in 0.2% aq. TFA containing 2% acetonitrile to a final concentration of 10 mg/ml. Following filtration through a 0.45 μm Millipore filter and subsequently through a 0.22 μm filter, the peptide solutions were loaded onto the column via multiple 20-ml injections into a 20-ml injection loop at a flow-rate of 10 ml/min. Column, Luna C18 (2), 250×30 mm I.D., 5 um particle size, 100 Å pore size from Phenomenex. Run conditions: 2% acetonitrile/min gradient up to an acetonitrile concentration 10% below that required to elute the peptide during analytical RP-HPLC, then shallow gradient elution (0.05% or 0.1% acetonitrile/min depending on the complexity of impurities near the product of interest on the analytical run of the crude peptide) at a flow-rate of 10 ml/min (same eluents as shown above for analytical RP-HPLC); at room temperature. • Temperature Profiling of Peptides on Reversed-phase HPLC to Measure Dimerization and Oligomerization: Purified peptides were analyzed on an Agilent 1200 series liquid chromatograph for temperature profiling using a Zorbax 300 SB-C8 column (150 mm×2.1 mm I.D.; 5 μm particle size, 300 Å pore size) from Agilent Technologies. […] Temperature profiling was carried out on peptide mixtures run at each temperature in 2° C. increments from 5° C. to 41° C. and 10° C. increments from 5° C. to 75° C. Twenty minutes was allowed between runs for temperature equilibration. • Characterization of Helical Structure: The mean residue molar ellipticities of peptides were determined by circular dichroism (CD) spectroscopy, using a Jasco J-815 spectropolarimeter (Jasco Inc. Easton, Md., USA) at 5° C. under KP buffer (50 mM NaH2PO4/Na2HPO4/100 mM KCl, pH 7.0) as well as in the presence of an α-helix inducing solvent, 2,2,2-trifluoroethanol, TFE, (50 mM NaH2PO4/Na2HPO4/100 mM KCl, pH 7.0 buffer/50% TFE). A 10-fold dilution of an approximately 500 μM stock solution of the peptide analogs was loaded into a 0.1 cm quartz cell and its ellipticity scanned from 195 to 250 nm.

A. baumannii strain 649 = type: cell-based, Acinetobacter baumannii; settings: for fold loss of antimicrobial activity in 25% human sera: 25% human sera versus no serum; for MIC 25% human serum: MH medium supplemented with 25% (v/v) human sera; for MIC No serum: MH medium
Procedure: Hemoglobin release was determined spectrophotometrically at 570 nm.
Because only unbound AMP is available to interact with the therapeutic target, the extent of binding between AMPs and serum proteins can have significant effects on efficacy of these drugs. […] This assay estimates the in vivo bioavailability of our AMPs. […] An increase in MIC in the presence of serum is attributed to inhibition of antimicrobial activity due to binding to serum proteins.

CC(=O)N[C@H](CCCCN)C(=O)N[C@H](CC(C)C)C(=O)N[C@H](CN)C(=O)N[C@H](CO)C(=O)N[C@H](CC(C)C)C(=O)N[C@H](CC(C)C)C(=O)N[C@H](CN)C(=O)N[C@@H](C(=O)N[C@H](CC(C)C)C(=O)N[C@H](CO)C(=O)N[C@H](CN)C(=O)N[C@H](C)C(=O)N[C@H](C)C(=O)N[C@H](C)C(=O)N[C@H](C)C(=O)N[C@H](C)C(=O)N[C@H](CC(C)C)C(=O)N[C@H](CN)C(=O)N[C@@H](C(=O)N[C@H](CC(C)C)C(=O)N[C@H](CC(C)C)C(=O)N[C@H](CN)C(=O)N[C@H](C)C(=O)N[C@H](CC(C)C)C(=O)N[C@H](CO)C(=O)N[C@H](CN)C(N)=O)[C@H](C)O)[C@H](C)O [D105(K13A/K16A)-(Lys^1-6Dap-1), Ac-KL(Dap)SLL(Dap)TLS(Dap)AAAAAL(Dap)TLL(Dap)ALS(Dap)-amide]
MICGM [1]: 1.3 µM | MIC MB9941 [1]: 1.6 µM (≈ 4 µg/mL) | MIC MB9949 [1]: 0.8 µM (≈ 2 µg/mL) | MIC MB9951 [1]: 0.8 µM (≈ 2 µg/mL) | MIC MB9952 [1]: 1.6 µM (≈ 4 µg/mL) | MIC MB9953 [1]: 1.6 µM (≈ 4 µg/mL) | MIC MB9955 [1]: 1.6 µM (≈ 4 µg/mL) | MIC MB9963 [1]: 1.6 µM (≈ 4 µg/mL) | HC50 (human red blood cells): 7.2 μg/mL and 2.9 μM | HC50 Fold Decrease (human red blood cells): >−395.9 | fold loss of antimicrobial activity in 25% human sera (A. baumannii strain 649): 15 fold | MIC 25% human serum (A. baumannii strain 649): 12.5 µM (≈ 31.2 µg/mL) | MIC No serum (A. baumannii strain 649): 0.8 µM (≈ 2 µg/mL)

CC(=O)N[C@H](CCCCN)C(=O)N[C@H](CC(C)C)C(=O)N[C@H](CCN)C(=O)N[C@H](CO)C(=O)N[C@H](CC(C)C)C(=O)N[C@H](CC(C)C)C(=O)N[C@H](CCN)C(=O)N[C@@H](C(=O)N[C@H](CC(C)C)C(=O)N[C@H](CO)C(=O)N[C@H](CCN)C(=O)N[C@H](C)C(=O)N[C@H](C)C(=O)N[C@H](C)C(=O)N[C@H](C)C(=O)N[C@H](C)C(=O)N[C@H](CC(C)C)C(=O)N[C@H](CCN)C(=O)N[C@@H](C(=O)N[C@H](CC(C)C)C(=O)N[C@H](CC(C)C)C(=O)N[C@H](CCN)C(=O)N[C@H](C)C(=O)N[C@H](CC(C)C)C(=O)N[C@H](CO)C(=O)N[C@H](CCN)C(N)=O)[C@H](C)O)[C@H](C)O [D86(K13A/K16A)-(Lys^1-6Dab-1), Ac-KL(Dab)SLL(Dab)TLS(Dab)AAAAAL(Dab)TLL(Dab)ALS(Dab)-amide]
MICGM [1]: 0.9 µM | MIC MB9941 [1]: 1.5 µM (≈ 3.87 µg/mL) | MIC MB9949 [1]: 0.8 µM (≈ 2.07 µg/mL) | MIC MB9951 [1]: 0.8 µM (≈ 2.07 µg/mL) | MIC MB9952 [1]: 0.8 µM (≈ 2.07 µg/mL) | MIC MB9953 [1]: 0.8 µM (≈ 2.07 µg/mL) | MIC MB9955 [1]: 0.8 µM (≈ 2.07 µg/mL) | MIC MB9963 [1]: 0.8 µM (≈ 2.07 µg/mL) | HC50 (human red blood cells): 20.0 μg/mL and 7.7 μM | HC50 Fold Decrease (human red blood cells): >−96.4 | fold loss of antimicrobial activity in 25% human sera (A. baumannii strain 649): 4 fold | MIC 25% human serum (A. baumannii strain 649): 3.0 µM (≈ 7.75 µg/mL) | MIC No serum (A. baumannii strain 649): 0.8 µM (≈ 2.07 µg/mL)
